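These data come from cells grown in 96-well plates and exposed to compound for 48 hours at five concentrations. TGI: concentration producing complete growth inhibition.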
What was measured:
Assay in all cases: DTP human tumour cell line panel, 48 h
EKVX NSCLC = tested on: EKVX NSCLC
SR leukemia = tested on: SR leukemia
ACHN renal = tested on: ACHN renal
IGROV1 ovarian = tested on: IGROV1 ovarian
NCI-H460 lung = tested on: NCI-H460 lung
SK-OV-3 ovarian = tested on: SK-OV-3 ovarian
LOX IMVI melanoma = tested on: LOX IMVI melanoma
M19-MEL melanoma = tested on: M19-MEL melanoma
SK-MEL-28 melanoma = tested on: SK-MEL-28 melanoma
KM20L2 colon = tested on: KM20L2 colon
MDA-MB-435 = tested on: MDA-MB-435
DMS 114 small cell lung = tested on: DMS 114 small cell lung
CAKI-1 renal = tested on: CAKI-1 renal
MALME-3M melanoma = tested on: MALME-3M melanoma
SNB-75 CNS = tested on: SNB-75 CNS
RPMI-8226 leukemia = tested on: RPMI-8226 leukemia
SF-295 CNS = tested on: SF-295 CNS
K-562 leukemia = tested on: K-562 leukemia
HCC-2998 colon = tested on: HCC-2998 colon
M14 melanoma = tested on: M14 melanoma
HL-60(TB) leukemia = tested on: HL-60(TB) leukemia
SK-MEL-2 melanoma = tested on: SK-MEL-2 melanoma
HOP-62 NSCLC = tested on: HOP-62 NSCLC
RXF 393 renal = tested on: RXF 393 renal
MDA-N = tested on: MDA-N
DMS 273 small cell lung = tested on: DMS 273 small cell lung
OVCAR-3 ovarian = tested on: OVCAR-3 ovarian
OVCAR-4 ovarian = tested on: OVCAR-4 ovarian
NCI/ADR-RES ovarian = tested on: NCI/ADR-RES ovarian
PC-3 prostate = tested on: PC-3 prostate
SK-MEL-5 melanoma = tested on: SK-MEL-5 melanoma
SNB-78 CNS = tested on: SNB-78 CNS
NCI-H23 lung = tested on: NCI-H23 lung
DLD-1 colon = tested on: DLD-1 colon
SF-268 CNS = tested on: SF-268 CNS
KM12 colon = tested on: KM12 colon
OVCAR-5 ovarian = tested on: OVCAR-5 ovarian
MOLT-4 leukemia = tested on: MOLT-4 leukemia
UACC-62 melanoma = tested on: UACC-62 melanoma
HCT-15 colon = tested on: HCT-15 colon
SNB-19 CNS = tested on: SNB-19 CNS
HOP-92 NSCLC = tested on: HOP-92 NSCLC
COLO 205 colon = tested on: COLO 205 colon
MDA-MB-231 breast = tested on: MDA-MB-231 breast
BT-549 breast = tested on: BT-549 breast
HCT-116 colon = tested on: HCT-116 colon
T-47D breast = tested on: T-47D breast
UO-31 renal = tested on: UO-31 renal
NCI-H226 lung = tested on: NCI-H226 lung
HS 578T breast = tested on: HS 578T breast
OVCAR-8 ovarian = tested on: OVCAR-8 ovarian
HT29 colon = tested on: HT29 colon
CCRF-CEM leukemia = tested on: CCRF-CEM leukemia
SF-539 CNS = tested on: SF-539 CNS
SW-620 colon = tested on: SW-620 colon
MCF7 breast = tested on: MCF7 breast
A549 NSCLC = tested on: A549 NSCLC
UACC-257 melanoma = tested on: UACC-257 melanoma
TK-10 renal = tested on: TK-10 renal
SN12C renal = tested on: SN12C renal
DU-145 prostate = tested on: DU-145 prostate
NCI-H522 lung = tested on: NCI-H522 lung
HOP-18 NSCLC = tested on: HOP-18 NSCLC
786-0 renal = tested on: 786-0 renal
A498 renal = tested on: A498 renal
U251 CNS = tested on: U251 CNS

`N#CC(NNC(=O)Cc1ccccc1)c1c(O)ccc2ccccc12` (stereo unspecified) showed a TGI (EKVX NSCLC) of 65.6 µM, a TGI (SR leukemia) of 38.3 µM and a TGI (ACHN renal) of 20.2 µM. The TGI (IGROV1 ovarian) was > 76.8 µM, the TGI (NCI-H460 lung) was > 77.5 µM and the TGI (SK-OV-3 ovarian) was 31.3 µM. For the same compound, the TGI (LOX IMVI melanoma) was 14.3 µM, the TGI (M19-MEL melanoma) was 16.3 µM and the TGI (SK-MEL-28 melanoma) was 97.7 µM. The TGI (KM20L2 colon) was 42 µM, the TGI (MDA-MB-435) was 84.1 µM and the TGI (DMS 114 small cell lung) was 5.38 µM. For the same compound, the TGI (CAKI-1 renal) was 25.8 µM, the TGI (MALME-3M melanoma) was 30.2 µM and the TGI (SNB-75 CNS) was 45 µM. The TGI (RPMI-8226 leukemia) was > 60.1 µM, the TGI (SF-295 CNS) was 40.2 µM and the TGI (K-562 leukemia) was > 100 µM. The TGI (HCC-2998 colon) was 45.4 µM, the TGI (M14 melanoma) was 21.1 µM and the TGI (HL-60(TB) leukemia) was > 46 µM. It also gave a TGI (SK-MEL-2 melanoma) of 26.9 µM, a TGI (HOP-62 NSCLC) of 59.2 µM and a TGI (RXF 393 renal) of 41.9 µM. The TGI (MDA-N) was > 100 µM, the TGI (DMS 273 small cell lung) was 19.1 µM and the TGI (OVCAR-3 ovarian) was 26.5 µM. The TGI (OVCAR-4 ovarian) was 51 µM, the TGI (NCI/ADR-RES ovarian) was 16 µM and the TGI (PC-3 prostate) was > 62.9 µM. For the same compound, the TGI (SK-MEL-5 melanoma) was 15.7 µM, the TGI (SNB-78 CNS) was 72 µM and the TGI (NCI-H23 lung) was 37.8 µM. For the same compound, the TGI (DLD-1 colon) was > 100 µM, the TGI (SF-268 CNS) was 54.5 µM and the TGI (KM12 colon) was > 72.4 µM. For the same compound, the TGI (OVCAR-5 ovarian) was > 43.5 µM, the TGI (MOLT-4 leukemia) was > 48.3 µM and the TGI (UACC-62 melanoma) was 12 µM. The TGI (HCT-15 colon) was > 100 µM, the TGI (SNB-19 CNS) was > 64.4 µM and the TGI (HOP-92 NSCLC) was 41.3 µM. The TGI (COLO 205 colon) was > 80.5 µM, the TGI (MDA-MB-231 breast) was 58.9 µM and the TGI (BT-549 breast) was 24.7 µM. The TGI (HCT-116 colon) was 50.9 µM, the TGI (T-47D breast) was 60.4 µM and the TGI (UO-31 renal) was 11.2 µM. For the same compound, the TGI (NCI-H226 lung) was 47.3 µM, the TGI (HS 578T breast) was 50.5 µM and the TGI (OVCAR-8 ovarian) was 52.2 µM. It also gave a TGI (HT29 colon) of 62.1 µM, a TGI (CCRF-CEM leukemia) of 26.9 µM and a TGI (SF-539 CNS) of 29 µM. For the same compound, the TGI (SW-620 colon) was > 100 µM, the TGI (MCF7 breast) was 14.3 µM and the TGI (A549 NSCLC) was 44.1 µM. The TGI (UACC-257 melanoma) was 18.3 µM, the TGI (TK-10 renal) was 80.4 µM and the TGI (SN12C renal) was 61.3 µM. For the same compound, the TGI (DU-145 prostate) was > 63.2 µM, the TGI (NCI-H522 lung) was 34 µM and the TGI (HOP-18 NSCLC) was 35.4 µM. The TGI (786-0 renal) was 39.2 µM, the TGI (A498 renal) was > 72.5 µM and the TGI (U251 CNS) was 45 µM.

— PubChem BioAssay (NCI)
